Source: patent US9675614B2, “PRMT5 inhibitors and uses thereof” (Epizyme, Inc., priority 2012, dated 2017)

Target: PRMT5/MEP50 (Homo sapiens (Human), UniProt O14744)
Experiment: PRMT5 Biochemical Assay (PRMT5/MEP50 enzyme assay on peptide substrate, 3H-SAM Flashplate)
Settings: PRMT5/MEP50 biochemical assay; read-out: Biochemical IC50

PRMT5/MEP50, sequence (O14744 other isoform, or with tags, fused parts or gaps): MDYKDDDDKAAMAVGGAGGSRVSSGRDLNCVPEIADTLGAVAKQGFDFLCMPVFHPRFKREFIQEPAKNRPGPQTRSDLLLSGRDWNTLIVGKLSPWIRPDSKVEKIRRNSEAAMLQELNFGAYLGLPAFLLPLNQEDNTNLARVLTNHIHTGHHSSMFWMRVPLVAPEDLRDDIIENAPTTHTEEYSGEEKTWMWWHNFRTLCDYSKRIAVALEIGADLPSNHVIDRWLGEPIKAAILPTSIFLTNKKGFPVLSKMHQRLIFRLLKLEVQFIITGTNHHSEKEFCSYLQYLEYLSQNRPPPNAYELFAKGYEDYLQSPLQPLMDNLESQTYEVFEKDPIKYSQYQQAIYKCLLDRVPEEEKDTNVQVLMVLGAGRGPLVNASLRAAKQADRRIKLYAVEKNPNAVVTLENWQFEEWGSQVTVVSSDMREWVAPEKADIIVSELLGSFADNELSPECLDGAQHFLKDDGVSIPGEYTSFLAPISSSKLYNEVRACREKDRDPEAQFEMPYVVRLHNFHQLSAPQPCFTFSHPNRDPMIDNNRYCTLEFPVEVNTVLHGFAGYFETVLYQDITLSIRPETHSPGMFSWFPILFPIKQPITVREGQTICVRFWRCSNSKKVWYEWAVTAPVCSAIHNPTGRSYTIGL
PRMT5/MEP50, sequence (Q9BQA1 other isoform, or with tags, fused parts or gaps partner): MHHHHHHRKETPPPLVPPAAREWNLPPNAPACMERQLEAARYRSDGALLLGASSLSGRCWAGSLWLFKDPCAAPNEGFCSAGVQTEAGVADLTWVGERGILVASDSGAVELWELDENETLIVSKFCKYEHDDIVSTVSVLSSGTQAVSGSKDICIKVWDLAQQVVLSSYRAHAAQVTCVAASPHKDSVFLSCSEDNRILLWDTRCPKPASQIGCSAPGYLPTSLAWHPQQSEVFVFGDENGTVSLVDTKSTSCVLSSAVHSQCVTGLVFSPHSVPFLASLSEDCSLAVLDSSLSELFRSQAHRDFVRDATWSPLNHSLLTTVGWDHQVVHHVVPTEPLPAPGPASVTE

IC50 [nM] | Compound
< 100 | CN1CCCC1c1cccc(C(=O)NCC(O)CN2CCc3ccccc3C2)c1 (centres unmarked) [Compound 34, N-(3-(3,4-dihydroisoquinolin-2(1H)-yl)-2-hydroxypropyl)-3-(1-methylpyrrolidin-2-yl) benzamide]
< 100 | CN1CCC(Oc2ccc(C(=O)NCC(O)CN3CCc4ccccc4C3)cc2)C1 (centres unmarked) [Compound 177]
< 100 | CC(=O)N1CCC(Oc2ccc(C(=O)NCC(O)CN3CCc4ccccc4C3)cc2)C1 (centres unmarked) [Compound 197]
< 100 | O=C(NC[C@H](O)CN1CCc2ccccc2C1)c1cnc2ccccc2c1 [Compound 317]
< 100 | O=C(NC[C@H](O)CN1CCc2ccccc2C1)c1cncc(NC2CCNC2)c1 (some centres unmarked) [Compound 259]
< 100 | CC(=O)N1CCC(Oc2cc(C(=O)NC[C@H](O)CN3CCc4ccccc4C3)ccn2)CC1 [Compound 205]
< 100 | O=C(NCC(O)CN1CCc2ccccc2C1)c1ccc(-c2ccccn2)cc1 (centres unmarked) [Compound 13, N-(3-(3,4-dihydroisoquinolin-2(1H)-yl)-2-hydroxypropyl)-4-(pyridin-2-yl)benzamide]
< 100 | Cc1ccc2cc(C(=O)NC[C@H](O)CN3CCc4ccccc4C3)ccc2n1 [Compound 221, (S)—N-(3-(3,4-dihydroisoquinolin-2(1H)-yl)-2-hydroxypropyl)-2-methylquinoline-6-carboxamide]
< 100 | O=C(NCC(O)CN1CCc2ccccc2C1)c1cccc(NC2CCOCC2)c1F (centres unmarked) [Compound 79]
101 to 1000 | O=C(NC[C@H](O)CN1CCc2ccccc2C1)c1c[nH]c2ccccc12 [Compound 240]
< 100 | CN1CCC(Oc2cc(C(=O)NC[C@H](O)CN3CCc4ccccc4C3)ccn2)CC1 [Compound 202]
101 to 1000 | O=C(NC[C@@H](O)CN1CCc2ccccc2C1)c1cccc(NC2CCOCC2)c1 [Compound 43]
< 100 | O=C(NC[C@H](O)CN1CCc2ccccc2C1)c1cccc(-c2ccccn2)c1 [Compound 20]
< 100 | O=C(NC[C@H](O)CN1CCc2ccccc2C1)c1cc(NC2CCOC2)ncn1 (some centres unmarked) [Compound 230]
< 100 | CC(=O)N(C)CCNc1cc(C(=O)NC[C@H](O)CN2CCc3ccccc3C2)ccn1 [Compound 315]
< 100 | O=C(NC[C@H](O)CN1CCc2ccccc2C1)c1ccc2c(c1)OCCO2 [Compound 274]
< 100 | O=C(NC[C@H](O)CN1CCc2ccccc2C1)c1ccnc(NCc2ccncc2)c1 [Compound 189]
< 100 | O=C(NC[C@@H](O)CN1CCc2ccccc2C1)c1ccc2ncccc2c1 [Compound 218]
< 100 | O=C(NC[C@H](O)CN1CCc2ccccc2C1)c1ccnc(OC2CCNCC2)c1 [Compound 229]
101 to 1000 | Cn1nc(C(=O)NCC(O)CN2CCc3ccccc3C2)cc1NC1CCOCC1 (centres unmarked) [Compound 312]
< 100 | Cc1c(NC2CCOCC2)ncnc1C(=O)NC[C@H](O)CN1CCc2ccccc2C1 [Compound 231]
< 100 | CN(c1cc(C(=O)NC[C@H](O)CN2CCc3ccccc3C2)ccn1)C1CCOCC1 [Compound 324]
< 100 | O=C(NC[C@H](O)CN1CCc2ccccc2C1)c1ccnc(NCC2CC2)c1 [Compound 187]
< 100 | O=C(NC[C@H](O)CN1CCc2ccccc2C1)c1ccnc(NC2CCNCC2)c1 [Compound 200]
< 100 | O=C(NC[C@H](O)CN1CCc2ccccc2C1)c1cc(OC2CCNCC2)ncn1 [Compound 258]
< 100 | O=C(NC[C@H](O)CN1CCc2ccccc2C1)c1cccc(NC2CCOCC2)c1 [Compound 44, (S)—N-(3-(3,4-dihydroisoquinolin-2(1H)-yl)-2-hydroxypropyl)-3-((tetrahydro-2H-pyran-4-yl)amino)benzamide]
< 100 | O=C(NCC(O)CN1CCc2ccccc2C1)c1cc(NC2CCOCC2)ncn1 (centres unmarked) [Compound 63]
< 100 | COc1ccc(NC2CCOCC2)cc1C(=O)NCC(O)CN1CCc2ccccc2C1 (centres unmarked) [Compound 77]
< 100 | O=C(NC[C@H](O)CN1CCc2ccccc2C1)c1ccnc(NC2CCCC2)c1 [Compound 334]
